Reference: PubChem BioAssay AID1963832 (Molecular Pharmacology Branch, DTP, NCI, 2024)

System: 885724-159-R-J1-PDC complex spheroid viability
Assay: Anticancer human tumor 885724-159-R-J1-PDC patient-derived pancreatic adenocarcinoma cell line growth inhibition [POLQ]
Conditions: for IC50: curve of first compound; for viability, T/C: stronger effect = lower value
Outline: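 Complex spheroid viability model combining PDC tumour cells with endothelial (HUVEC) and MSC stromal cells. Novobiocin, ART-558 or RP6685 were tested singly and in combination with standard and investigational anticancer drugs. Each was titrated in half-log steps from near clinical Cmax, or from 10 microM where Cmax was unknown.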

[1] = second compound 0.0316 µM, first compound 0.0316 µM
[2] = second compound 0.0316 µM, first compound 0.1 µM
[3] = second compound 0.0316 µM, first compound 0.316 µM
[4] = second compound 0.0316 µM, first compound 1 µM
[5] = second compound 0.0316 µM, first compound 3.16 µM
[6] = second compound 0.0316 µM, first compound 10 µM
[7] = second compound 0.1 µM, first compound 0.0316 µM
[8] = second compound 0.1 µM, first compound 0.1 µM
[9] = second compound 0.1 µM, first compound 0.316 µM
[10] = second compound 0.1 µM, first compound 1 µM
[11] = second compound 0.1 µM, first compound 3.16 µM
[12] = second compound 0.1 µM, first compound 10 µM
[13] = second compound 0.316 µM, first compound 0.0316 µM
[14] = second compound 0.316 µM, first compound 0.1 µM
[15] = second compound 0.316 µM, first compound 0.316 µM
[16] = second compound 0.316 µM, first compound 1 µM
[17] = second compound 0.316 µM, first compound 3.16 µM
[18] = second compound 0.316 µM, first compound 10 µM
[19] = second compound 1 µM, first compound 0.0316 µM
[20] = second compound 1 µM, first compound 0.1 µM
[21] = second compound 1 µM, first compound 0.316 µM
[22] = second compound 1 µM, first compound 1 µM
[23] = second compound 1 µM, first compound 3.16 µM
[24] = second compound 1 µM, first compound 10 µM
[25] = second compound 3.16 µM, first compound 0.0316 µM
[26] = second compound 3.16 µM, first compound 0.1 µM
[27] = second compound 3.16 µM, first compound 0.316 µM
[28] = second compound 3.16 µM, first compound 1 µM
[29] = second compound 3.16 µM, first compound 3.16 µM
[30] = second compound 3.16 µM, first compound 10 µM
[31] = second compound 10 µM, first compound 0.0316 µM
[32] = second compound 10 µM, first compound 0.1 µM
[33] = second compound 10 µM, first compound 0.316 µM
[34] = second compound 10 µM, first compound 1 µM
[35] = second compound 10 µM, first compound 3.16 µM
[36] = second compound 10 µM, first compound 10 µM
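Note: spheroids exposed to compounds for 7 days.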

`C#Cc1c(F)ccc2cc(O)cc(-c3ncc4c(N5CC6CCC(C5)N6)nc(OCC56CCCN5CC(F)C6)nc4c3F)c12` (stereo unspecified) + Cc1cccc(N(C)C(=O)C2C(O)CCN2c2nc(C)cc(C(F)(F)F)c2C#N)c1 gave an IC50 (second compound 0.0316 µM) of 2.45 µM, an IC50 (second compound 0.1 µM) of 2.33 µM and an IC50 (second compound 0.316 µM) of 2.14 µM. It also gave an IC50 (second compound 1 µM) of 2.17 µM, an IC50 (second compound 3.16 µM) of 1.93 µM and an IC50 (second compound 10 µM) of 1.47 µM. For the same molecule, the viability, T/C [1] was 98.6%, the viability, T/C [2] was 92.6% and the viability, T/C [3] was 78.5%. The viability, T/C [4] was 72%, the viability, T/C [5] was 42.4% and the viability, T/C [6] was 19.9%. It also gave a viability, T/C [7] of 101%, a viability, T/C [8] of 93.1% and a viability, T/C [9] of 83.9%. The viability, T/C [10] was 68.8%, the viability, T/C [11] was 42.7% and the viability, T/C [12] was 18.4%. It also gave a viability, T/C [13] of 95.5%, a viability, T/C [14] of 87.5% and a viability, T/C [15] of 95.4%. For the same molecule, the viability, T/C [16] was 70%, the viability, T/C [17] was 39.7% and the viability, T/C [18] was 20.6%. It also gave a viability, T/C [19] of 93.3%, a viability, T/C [20] of 101% and a viability, T/C [21] of 79.7%. The viability, T/C [22] was 64.5%, the viability, T/C [23] was 44.2% and the viability, T/C [24] was 21.2%. It also gave a viability, T/C [25] of 92.8%, a viability, T/C [26] of 94.2% and a viability, T/C [27] of 80.4%. For the same molecule, the viability, T/C [28] was 62.8%, the viability, T/C [29] was 40.7% and the viability, T/C [30] was 19%. For the same molecule, the viability, T/C [31] was 93.8%, the viability, T/C [32] was 81% and the viability, T/C [33] was 80.3%. The viability, T/C [34] was 55.3%, the viability, T/C [35] was 36.2% and the viability, T/C [36] was 19.9%.
`C=CC(=O)N1CCN(c2nc(=O)n(-c3c(C)ccnc3C(C)C)c3nc(-c4c(O)cccc4F)c(F)cc23)C(C)C1` (stereo unspecified) + Cc1cccc(N(C)C(=O)C2C(O)CCN2c2nc(C)cc(C(F)(F)F)c2C#N)c1 showed an IC50 (second compound 0.0316 µM) of over 10 µM, an IC50 (second compound 0.1 µM) of over 10 µM and an IC50 (second compound 0.316 µM) of over 10 µM. It also gave an IC50 (second compound 1 µM) of over 10 µM, an IC50 (second compound 3.16 µM) of over 10 µM and an IC50 (second compound 10 µM) of over 10 µM. It also gave a viability, T/C [1] of 105%, a viability, T/C [2] of 90.7% and a viability, T/C [3] of 99.5%. The viability, T/C [4] was 97.8%, the viability, T/C [5] was 104% and the viability, T/C [6] was 96.4%. It also gave a viability, T/C [7] of 95.4%, a viability, T/C [8] of 86.6% and a viability, T/C [9] of 99.1%. The viability, T/C [10] was 96.8%, the viability, T/C [11] was 108% and the viability, T/C [12] was 88.7%. For the same molecule, the viability, T/C [13] was 98.6%, the viability, T/C [14] was 95% and the viability, T/C [15] was 91.3%. The viability, T/C [16] was 105%, the viability, T/C [17] was 105% and the viability, T/C [18] was 88%. The viability, T/C [19] was 94.8%, the viability, T/C [20] was 92.1% and the viability, T/C [21] was 95.3%. For the same molecule, the viability, T/C [22] was 108%, the viability, T/C [23] was 103% and the viability, T/C [24] was 92.3%. The viability, T/C [25] was 98.5%, the viability, T/C [26] was 94.7% and the viability, T/C [27] was 98.8%. For the same molecule, the viability, T/C [28] was 99.4%, the viability, T/C [29] was 110% and the viability, T/C [30] was 88.7%. The viability, T/C [31] was 95.4%, the viability, T/C [32] was 91.8% and the viability, T/C [33] was 96.1%. It also gave a viability, T/C [34] of 109%, a viability, T/C [35] of 107% and a viability, T/C [36] of 93.2%.
`CC1COCCN1c1cc(C2(O)CC3CCC(C2)O3)c2cnn(-c3ccn[nH]3)c2n1` (stereo unspecified) + Cc1cccc(N(C)C(=O)C2C(O)CCN2c2nc(C)cc(C(F)(F)F)c2C#N)c1 gave an IC50 (second compound 0.0316 µM) of 0.142 µM, an IC50 (second compound 0.1 µM) of 0.243 µM and an IC50 (second compound 0.316 µM) of 0.151 µM. The IC50 (second compound 1 µM) was 0.188 µM, the IC50 (second compound 3.16 µM) was 0.302 µM and the IC50 (second compound 10 µM) was 0.225 µM. For the same molecule, the viability, T/C [1] was 74.4%, the viability, T/C [2] was 51.4% and the viability, T/C [3] was 41.6%. The viability, T/C [4] was 39.6%, the viability, T/C [5] was 35.4% and the viability, T/C [6] was 28.5%. The viability, T/C [7] was 72%, the viability, T/C [8] was 58.1% and the viability, T/C [9] was 47.6%. For the same molecule, the viability, T/C [10] was 39.3%, the viability, T/C [11] was 35.4% and the viability, T/C [12] was 30.8%. The viability, T/C [13] was 70.4%, the viability, T/C [14] was 46.9% and the viability, T/C [15] was 47.2%. For the same molecule, the viability, T/C [16] was 41%, the viability, T/C [17] was 35.3% and the viability, T/C [18] was 28.8%. The viability, T/C [19] was 77.3%, the viability, T/C [20] was 56.7% and the viability, T/C [21] was 41.4%. It also gave a viability, T/C [22] of 40%, a viability, T/C [23] of 33.2% and a viability, T/C [24] of 27.1%. For the same molecule, the viability, T/C [25] was 68.8%, the viability, T/C [26] was 55.8% and the viability, T/C [27] was 49.4%. The viability, T/C [28] was 43.2%, the viability, T/C [29] was 36.5% and the viability, T/C [30] was 29.2%. The viability, T/C [31] was 70.6%, the viability, T/C [32] was 54.2% and the viability, T/C [33] was 48.8%. For the same molecule, the viability, T/C [34] was 38.1%, the viability, T/C [35] was 36% and the viability, T/C [36] was 29%.
